Measurements from patent publication US10471076B2, “Compositions and methods to treat vision disorders” (YouHealth Biotech, Limited, priority 2014, dated 2019).
“Also recorded” adds a separate entry of the source.

How the values were obtained:
[1] = molecular target: T1, αA-crystallin (Y118D) aggregates (Homo sapiens, UniProt P02489, Y118D); experiment: Serial live-cell imaging, single-particle tracking of aggregates; type: cell-based; settings: human lens progenitor cells; 40 mM sterol in 1% DMSO for 4 h
T1 construct: expressed in transfected cells; host or cells: human lens progenitor cells, G418-selected
T1 sequence (P02489 1-173 Y118D): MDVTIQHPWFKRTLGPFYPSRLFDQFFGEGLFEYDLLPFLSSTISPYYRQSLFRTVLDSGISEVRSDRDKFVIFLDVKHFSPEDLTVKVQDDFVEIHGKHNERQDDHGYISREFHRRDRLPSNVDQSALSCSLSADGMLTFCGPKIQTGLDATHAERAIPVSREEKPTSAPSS
Protocol: Live-cell imaging. Human lens progenitor cells were transfected with plasmids containing αA-crystallin (Y118D) mutant. After a 24 h transfection period, the cells with stable expression of αA-crystallin (Y118D) mutant were screen by incubation in culture medium containing 0.8 mg ml^−1 G418 for 7 days. Then the obtained cells were seeded onto glass bottom cell culture dishes (In Vitro Scientific) and treated with 1% DMSO, 40 mM cholesterol in 1% DMSO or 40 mM lanosterol in 1% DMSO for 4 h. Fresh culture medium was added, and the cells were analysed by serial live-cell imaging. Live-cell images were viewed with an Olympus IX81 microscope and captured with CellSens Dimension soft-ware (Olympus). Quantitative analysis of the size of aggregates was performed by measuring the fluorescence intensity of p62-positive aggregates using single-par-tide tracking in live-cell imaging. The live-cell imaging was conducted using three biological replicates with 1-8 repetitions each.

[2] = tested on: cataract-causing mutant crystallin proteins; experiment: Intracellular aggregation of mutant crystallins in HLEB-3 cells; type: cell-based, human; settings: HLEB-3 cells co-transfected with LSS and crystallin mutant; 40 μM sterols 2 h, then 12 h; lanosterol P<1×10^−4, cholesterol P>0.1
Protocol: (§1) FIG. 9A, FIG. 9B, and FIG. 9C show inhibition of crystallin mutant aggregation by wild-type LSS and lanosterol in HLEB-3 cells (FIG. 9A) or HeLa cells (FIG. 9B). Cells co-transfected with LSS and crystallin mutant constructs were cultured for 24 h before assaying for aggregates. The rescue experiments were performed by addition of 40 […] μM sterols (lanosterol or cholesterol) to the cell culture medium for 2 h, the sterol medium was then replaced with fresh culture medium and the cells were cultured for a further 12 h. The percentage of cells with crystallin aggregates were calculated from ten randomly selected viewing fields. The values of the wild-type LSS group, mutant group, or mutant plus lanosterol group were calculated. […] After transfection for 4 h and incubation in fresh culture medium for another 24 h, the cells were lysed and centrifuged to separate supernatant and insoluble fractions. LSS and crystallin fusion proteins were detected by antibodies against Flag and GFP, respectively. Red arrows indicate higher crystalline content in the soluble fraction versus in the insoluble fraction in cells containing the WT-LSS.
(§2) Cells were transfected with various crystallin constructs for 4 h and cultured for an additional 24 h in fresh culture medium. Then the cells were treated with 10, 20 and 40 μM lanosterol in 1% (HLEB-3 cells) or 2% DMSO (HeLa cells) for 2 h and cultured for another 12 h. Cells treated with 1% (HLEB-3 cells) or 2% DMSO (HeLa cells) were used as the controls. Formation of intracellular aggregates of various crystallin proteins was visualized by fluorescence of GFP (green) and the nuclei were stained with Hoechst 33342 (blue). Typical intracellular aggregates are indicated by arrows.
(§3) The impact of LSS and lanosterol on intracellular crystallin aggregation were evaluated in single-blinded observer studies. Experiments have been repeated at least three times. P values were calculated using Student's t-tests. Fluorescence microscopy. […]

[3] = tested on: cataract-causing mutant crystallin proteins; experiment: Intracellular aggregation of mutant crystallins in HeLa cells; type: cell-based, human; settings: HeLa cells co-transfected with LSS and crystallin mutant; 40 μM sterols 2 h, then 12 h; lanosterol P<1×10^−4, cholesterol P>0.1
Protocol: as §1, §2, §3

[4] = tested on: cataract-causing mutant crystallin proteins; experiment: Intracellular aggregation of mutant crystallins in transfected human lens progenitor cells; type: cell-based
Protocol: To assess the effect of lanosterol on crystallin aggregation, human lens progenitor cells were co-transfected with LSS and various crystallin constructs for 4 h. Cells co-transfected with crystallin mutants and pcDNA3.1-N-Flag were used as a control. Human lens progenitor cells co-transfected with LSS and crystallin mutant constructs were cultured for 12 h before assaying for aggregates. The rescue experiments were performed after 16 h by addition of 40 mM sterols (lanosterol or cholesterol, Sigma-Aldrich) to the cell culture medium for 2 h, which was then replaced with fresh culture medium and cells cultured for 24 h. The percentage of cells with crystallin aggregates was calculated from ten randomly selected viewing fields. The values of the wild-type LSS group, mutant group, and mutant plus lanosterol group were calculated. Cells treated with 1% DMSO were used as the controls.
The impact of LSS and lanosterol on intracellular crystallin aggregation were evaluated in single-blinded observer studies. Experiments have been repeated at least three times. P values were calculated using Student's t-tests. Fluorescence microscopy. Equal amounts of the human lens progenitor cells, HLEB-3 cells or HeLa cells were seeded on glass coverslips pretreated with TC (Solarbio). After culturing for 24 h to reach 90% confluency, the cells were transfected with plasmids containing various LSS or crystallin genes or co-transfected with plasmids containing a certain crystallin gene and those containing the wild-type or mutated LSS gene. The controls were cells transfected with the plasmids containing peGFP-N1 and/or peDNA3.1-N-Flag. Both transfection and co-transfection were performed using Lipofectamine 3000 (Invitrogen) according to the instructions from the manufacturer.
The effect of lanosterol or cholesterol on the aggresome formation of various crystallins was studied by transfecting the cells with plasmids containing various crystallin genes. The cells were incubated for 24 h to enable efficient protein expression and aggresome formation. The cells were then treated with 0-40 mM sterols in 1% (for human lens progenitor cells) or 2% DMSO (for HeLa cells). Cells treated with 1% or 2% DMSO were used as the control. After treatment for 2 h, the media was replaced with fresh media. After 12 h, the cells were used for microscopy analysis.
The microscopy samples were prepared by washing the slips with phosphate buffered saline (PBS) three times. The cells were fixed with 4% paraformaldehyde for 40 min followed by another three washes with PBS. The cells were permeabilized with 0.1% Triton X-100 (Sigma) in PBS for 10 min and blocked with 5% normal goat serum in PBS for 1 h at 37° C. […] The mounted cells were analysed using a Carl Zeiss LSM 710 confocal microscope.

[5] = tested on: amyloid-like fibrils of crystallin proteins; experiment: Re-dissolution of pre-formed amyloid-like fibrils (ThT fluorescence, TEM, turbidity); type: biochemical, human; settings: 0.2 mg/ml aggregates; 500 μM sterols in 500 μM DPPC liposome (b129 prints 500 mM), 37° C., 24 h; TEM and ThT fluorescence; concentration-dependent
Protocol: Crystallin aggregates were formed by incubating 5 mg ml^−1 protein solution at 60° C. for 2 h (α-crystallins) or 37° C. for 48 h (β- and γ-crystallins) in the presence of 1 M guanidine chloride. The preformed aggregates were re-suspended in PBS at a final protein concentration of 0.2 mg ml^−1 and were treated with 500 μM sterols in 500 μM DPPC liposome and incubated at 37° C. for 24 h. Aggregates treated with 500 μM DPPC liposome only were used as the controls. […] Aggregates treated with 500 μM DPPC liposome only were used as the controls.
All protein samples were prepared in 20 mM PBS buffer containing 150 mM NaCl, 1 mM EDTA and 1 mM DTT.
Protein aggregation and aggregate dissociation. The aggregates of the wild-type and mutated αA- and αB-crystallin proteins were obtained by heating the protein solutions containing 1 M guanidine chloride (ultrapure, Sigma-Aldrich) at a con-centration of 5 mg/ml at 60° C. for 2 h. The aggregates of the wild-type and mutated b- and c-crystallins were prepared by heating the protein solutions containing 1 M guanidine chloride at 37° C. for 48 h. The formation of aggregates was confirmed by ThT fluorescence, turbidity (absorbance at 400 nm) and transmission electron microscopy (TEM) observations. […] After 24 h of treatment, the protein solutions were used for ThT fluorescence, turbidity and negatively stained TEM observations. […]

[6] = molecular target: T2, LSS (Rattus norvegicus, UniProt P48450); settings: cited from earlier work
T2 sequence (P48450 1-733): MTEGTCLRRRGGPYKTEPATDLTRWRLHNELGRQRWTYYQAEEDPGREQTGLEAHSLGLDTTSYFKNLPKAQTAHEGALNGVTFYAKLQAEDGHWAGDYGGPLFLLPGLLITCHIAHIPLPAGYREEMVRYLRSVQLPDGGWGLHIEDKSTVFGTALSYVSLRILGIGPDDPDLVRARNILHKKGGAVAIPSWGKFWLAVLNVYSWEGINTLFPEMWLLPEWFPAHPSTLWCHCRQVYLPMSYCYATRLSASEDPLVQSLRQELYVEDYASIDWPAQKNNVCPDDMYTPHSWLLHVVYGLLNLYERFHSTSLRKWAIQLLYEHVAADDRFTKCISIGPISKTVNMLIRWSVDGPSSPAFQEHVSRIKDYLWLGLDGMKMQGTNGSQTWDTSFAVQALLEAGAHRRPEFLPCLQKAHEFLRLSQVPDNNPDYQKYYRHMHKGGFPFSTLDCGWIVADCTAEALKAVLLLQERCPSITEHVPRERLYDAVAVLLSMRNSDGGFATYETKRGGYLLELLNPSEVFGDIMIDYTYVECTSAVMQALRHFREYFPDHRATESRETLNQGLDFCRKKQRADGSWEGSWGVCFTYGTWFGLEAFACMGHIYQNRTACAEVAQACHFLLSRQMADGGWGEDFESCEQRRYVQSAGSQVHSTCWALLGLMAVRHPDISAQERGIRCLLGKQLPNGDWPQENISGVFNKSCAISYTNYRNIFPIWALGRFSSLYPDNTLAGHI

SMILES	effect on αA-crystallin (Y118D) aggregates in live cells [1]	percentage of cells with crystallin aggregates versus control group (rescue) [2]	percentage of cells with crystallin aggregates versus control group (rescue) [3]	intracellular aggregation / aggresome formation of crystallin proteins ([4]; 0-40 mM sterols in 1% DMSO for 2 h, then 12 h, concentration-dependent, n=3, lanosterol P<1×10^−4, cholesterol P>0.1)	crystallin aggregation in cells co-expressing an LSS mutant and a mutant crystallin (rescue by sterol) ([4]; 40 mM sterols in culture medium for 2 h, then fresh medium 24 h)	re-dissolution of aggregated crystallin proteins from amyloid-like fibrils [5]	cataract formation by inhibition of LSS [6]
CC(C)CCC[C@@H](C)[C@H]1CC[C@H]2[C@@H]3CC=C4C[C@@H](O)CC[C@]4(C)[C@H]3CC[C@]12C [cholesterol, reference compound]	did not reduce aggresome formation	showed no difference to the control group	showed no difference to the control group	had no effect; also recorded: did not reduce intracellular aggregation	but not cholesterol	but not cholesterol	–
CCN(CC)CCO[C@H]1CC[C@@]2(C)C(=CC[C@@H]3[C@@H]2CC[C@]2(C)C(=O)CC[C@@H]32)C1 [U18666A]	–	–	–	–	–	–	cause cataracts
